Data taken from PMC4965013, “Open Source Drug Discovery with the Malaria Box Compound Collection for Neglected Diseases and Beyond” (PLoS Pathogens, 2016).
pEC50: −log10 of the molar value.

Columns and labels:
Atg8-Atg3 = tested on: Atg8-Atg3; parameters: method as in ref [38] (a number printed in a supplementary file, which may have a reference list of its own: not looked up in the article's list); settings: ref [38]; cited from earlier work
PfA-M1 = target: T1, PfA-M1 (Plasmodium falciparum, UniProt O96935); assay: rPfA-M1 aminopeptidase activity (Florent); format: biochemical, P. falciparum; settings: for effect on rPfA-M1 in words: 100µM
T1 construct: encoding residues 192-1085 of native PfA-M1; hexahistidine (N); TEV cleavage site (ENLYFQS) (N); made in house; host or cells: Escherichia coli BL21 (DE3) Rosetta 2

PfA-M17 = target: T2, PfA-M17 (Plasmodium falciparum, UniProt Q8IL11); assay: rPfA-M17 aminopeptidase activity (Florent); format: biochemical, P. falciparum; settings: for effect on rPfA-M17 in words: 100µM
T2 construct: residues 84-605 of native Plasmodium falciparum leucyl aminopeptidase PfA-M17 (PlasmoDB PF3D7_1446200); hexahistidine (N); TEV cleavage site (N); made in house; host or cells: Escherichia coli BL21 (DE3) Rosetta 2

[1] = tested on: P. falciparum 3D7 trophozoites; assay: Metabolomic fingerprint profiling LC-MS; format: cell-based, Plasmodium falciparum; parameters: UDP-D-glucose / ADP-D-glucose: unit not given here; settings: for Acetyllysine / N-acetyl-L-ornithine / N-carbamoyl-L-aspartate / NADPH / dAMP / dCMP / dTDP / dTMP / dTTP / dihydroorotate / orotate / DLH / DLS/SDL/SID / PD / PEE / PVNF / 3-phosphoglycerate / ADP-D-glucose / ATP / CDP / D-sedoheptulose-1/7-phosphate / FAD / GMP / NAD+ / NADP+ / Octoluse Bisphosphate / Pyroglutamic acid / UDP-D-glucose / UDP-D-glucuronate / UDP-N-acetyl-glucosamine / UDP / UMP / UTP / a-ketoglutarate / citrate/isocitrate / cytidine / dATP / dGMP/AMP / fumarate / glucose-1/6-phosphate / glycerate / guanine / guanosine / hypoxanthine / indole / inosine / nicotinate / ornithine / phosphoenolpyruvate / pyruvate / ribose-phosphate / sarcosine/alanine / sn-glycerol-3-phosphate / succinate/methylmalonic acid / uridine / xanthosine: S2 Table Metabolomics; for Acetyllysine: metabolite Acetyllysine; for N-acetyl-L-ornithine: metabolite N-acetyl-L-ornithine; for N-carbamoyl-L-aspartate: metabolite N-carbamoyl-L-aspartate; for NADPH: metabolite NADPH; for dAMP: metabolite dAMP; for dCMP: metabolite dCMP; for dTDP: metabolite dTDP; for dTMP: metabolite dTMP; for dTTP: metabolite dTTP; for dihydroorotate: metabolite dihydroorotate; for orotate: metabolite orotate; for DLH: peptide DLH; for DLS/SDL/SID: peptide DLS/SDL/SID; for PD: peptide PD; for PEE: peptide PEE; for PVNF: peptide PVNF; for 3-phosphoglycerate: metabolite 3-phosphoglycerate; for ADP-D-glucose: metabolite ADP-D-glucose; for ATP: metabolite ATP; for CDP: metabolite CDP; for CDP / D-sedoheptulose-1/7-phosphate / GMP / Octoluse Bisphosphate / UDP / UMP / UTP / citrate/isocitrate / dGMP/AMP / fumarate / glucose-1/6-phosphate / glycerate / guanine / guanosine / inosine / pyruvate / sarcosine/alanine / succinate/methylmalonic acid / uridine / xanthosine: change in metabolite level after compound treatment; for D-sedoheptulose-1/7-phosphate: metabolite D-sedoheptulose-1/7-phosphate; for FAD: metabolite FAD; for GMP: metabolite GMP; for NAD+: metabolite NAD+; for NADP+: metabolite NADP+; for Octoluse Bisphosphate: metabolite Octoluse Bisphosphate; for Pyroglutamic acid: metabolite Pyroglutamic acid; for UDP-D-glucose: metabolite UDP-D-glucose; for UDP-D-glucuronate: metabolite UDP-D-glucuronate; for UDP-N-acetyl-glucosamine: metabolite UDP-N-acetyl-glucosamine; for UDP: metabolite UDP; for UMP: metabolite UMP; for UTP: metabolite UTP; for a-ketoglutarate: metabolite a-ketoglutarate; for citrate/isocitrate: metabolite citrate/isocitrate; for cytidine: metabolite cytidine; for dATP: metabolite dATP; for dGMP/AMP: metabolite dGMP/AMP; for fumarate: metabolite fumarate; for glucose-1/6-phosphate: metabolite glucose-1/6-phosphate; for glycerate: metabolite glycerate; for guanine: metabolite guanine; for guanosine: metabolite guanosine; for hypoxanthine: metabolite hypoxanthine; for indole: metabolite indole; for inosine: metabolite inosine; for 2_3-Diphosphoglyceric acid / 4-phosphopantothenate / 6-phospho-D-gluconate / FMN / IMP / Pyrophosphate / Sedoheptoluse bisphosphate / cyclic-AMP / glutathione disulfide / lactate / myo-inositol: metabolite level change after treatment; for nicotinate: metabolite nicotinate; for ornithine: metabolite ornithine; for phosphoenolpyruvate: metabolite phosphoenolpyruvate; for pyruvate: metabolite pyruvate; for ribose-phosphate: metabolite ribose-phosphate; for sarcosine/alanine: metabolite sarcosine/alanine; for sn-glycerol-3-phosphate: metabolite sn-glycerol-3-phosphate; for succinate/methylmalonic acid: metabolite succinate/methylmalonic acid; for uridine: metabolite uridine; for xanthosine: metabolite xanthosine
P. falciparum = assay: EC50 listed in S2 Table Metabolomics (used to set the concentration tested); format: cell-based; settings: Plasmodium falciparum; EC50 used for Factor_XEC50 in metabolomics; read-out: EC50_nM
T. cruzi Tulahuen = settings: ref [84]; read-out: Trypanosoma cruzi Tulahuen intracellular amastigotes in MRC5 cell line EC50; cited from earlier work
[2] = tested on: Neospora caninum Nc-1 tachyzoites; assay: Neospora caninum Nc-Betagal proliferation; format: cell-based
[3] = tested on: P. falciparum M1 aminopeptidase; parameters: method as in ref [23] (a number printed in a supplementary file, which may have a reference list of its own: not looked up in the article's list); settings: ref [23]; cited from earlier work
[4] = tested on: P. falciparum M17 aminopeptidase; parameters: method as in ref [23] (a number printed in a supplementary file, which may have a reference list of its own: not looked up in the article's list); settings: ref [23]; cited from earlier work
[5] = tested on: Schistosoma mansoni schistosomula (somules); assay: S. mansoni somules phenotypic screen Caffrey; settings: 2.5 µM, 48 h
[6] = tested on: Schistosoma mansoni adult males; assay: S. mansoni adult phenotypic and motility screen Caffrey

T2 sequence (Q8IL11 84-605): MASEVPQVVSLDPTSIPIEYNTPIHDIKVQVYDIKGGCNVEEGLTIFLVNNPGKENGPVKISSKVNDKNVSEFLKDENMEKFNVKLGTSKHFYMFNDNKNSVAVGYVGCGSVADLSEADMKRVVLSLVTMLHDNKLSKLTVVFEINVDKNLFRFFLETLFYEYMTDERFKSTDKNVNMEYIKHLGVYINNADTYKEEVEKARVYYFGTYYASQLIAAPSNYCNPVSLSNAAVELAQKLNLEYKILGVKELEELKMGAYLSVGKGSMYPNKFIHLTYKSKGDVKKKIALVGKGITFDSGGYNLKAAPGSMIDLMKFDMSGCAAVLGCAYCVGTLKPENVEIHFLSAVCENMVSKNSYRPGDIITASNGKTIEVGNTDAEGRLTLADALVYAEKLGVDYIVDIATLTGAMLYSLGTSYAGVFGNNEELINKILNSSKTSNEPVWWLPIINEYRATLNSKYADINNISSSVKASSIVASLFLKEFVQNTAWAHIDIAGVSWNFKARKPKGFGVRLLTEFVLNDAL
T1 sequence (O96935 192-1085): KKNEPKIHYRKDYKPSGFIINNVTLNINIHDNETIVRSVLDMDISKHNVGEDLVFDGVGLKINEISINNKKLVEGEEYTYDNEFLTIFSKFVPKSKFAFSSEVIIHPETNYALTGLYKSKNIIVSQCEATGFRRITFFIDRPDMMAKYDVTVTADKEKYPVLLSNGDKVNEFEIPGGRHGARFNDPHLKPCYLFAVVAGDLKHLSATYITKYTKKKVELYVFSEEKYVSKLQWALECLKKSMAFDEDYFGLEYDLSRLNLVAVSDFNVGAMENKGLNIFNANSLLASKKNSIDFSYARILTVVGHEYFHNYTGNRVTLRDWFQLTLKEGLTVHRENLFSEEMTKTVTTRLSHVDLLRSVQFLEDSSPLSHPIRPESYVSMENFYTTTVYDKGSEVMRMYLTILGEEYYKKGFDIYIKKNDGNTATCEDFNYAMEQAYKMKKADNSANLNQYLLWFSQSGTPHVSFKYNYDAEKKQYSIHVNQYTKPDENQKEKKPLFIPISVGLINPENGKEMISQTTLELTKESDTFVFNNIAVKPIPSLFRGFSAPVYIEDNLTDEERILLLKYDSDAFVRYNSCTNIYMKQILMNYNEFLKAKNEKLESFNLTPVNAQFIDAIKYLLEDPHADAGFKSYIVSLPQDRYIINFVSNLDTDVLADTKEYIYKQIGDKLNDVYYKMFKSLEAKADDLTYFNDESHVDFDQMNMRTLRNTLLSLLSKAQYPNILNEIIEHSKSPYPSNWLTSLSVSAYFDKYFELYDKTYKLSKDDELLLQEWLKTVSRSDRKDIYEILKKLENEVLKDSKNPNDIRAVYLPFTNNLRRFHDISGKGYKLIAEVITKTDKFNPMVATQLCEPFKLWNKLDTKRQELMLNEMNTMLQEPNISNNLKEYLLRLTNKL

## O=C(Nc1nc(-c2ccccn2)cs1)c1ccccc1Br [MMV665909]
Atg8-Atg3
  PPI inhibitors of Atg8-Atg3 interaction: PPI inhibitors

## COc1ccc(C2c3ccc4ccccc4c3Oc3ncn(CCCn4ccnc4)c(=N)c32)cc1OC (stereo not shown) [MMV667490]
PfA-M1
  effect on rPfA-M1 in words: particularly effective
PfA-M17
  effect on rPfA-M17 in words: only moderately inhibiting

## Cc1ccc(Nc2nc(-c3ccccn3)cs2)cc1 [MMV007907]
[1]
  Acetyllysine: -0.3916
  N-acetyl-L-ornithine: -0.2705
  N-carbamoyl-L-aspartate: 0.4477
  NADPH: 1.503
  dAMP: -0.05008
  dCMP: -0.3338
  dTDP: -0.4245
  dTMP: -0.5337
  dTTP: 0.04887
  dihydroorotate: 0.6541
  orotate: 0.3803
  DLH: -0.1443
  DLS/SDL/SID: -0.03559
  PD: -0.7075
  PEE: -0.4235
  PVNF: 0.2287
  3-phosphoglycerate: 0.2283
  ADP-D-glucose: 0.03116
  ATP: 0.08371
  CDP: -0.4596
  D-sedoheptulose-1/7-phosphate: -0.2275
  FAD: 0.1798
  GMP: 0.08425
  NAD+: 0.05427
  NADP+: -0.07684
  Octoluse Bisphosphate: -0.09051
  Pyroglutamic acid: 0.2079
  UDP-D-glucose: -0.006173
  UDP-D-glucuronate: 0.1137
  UDP-N-acetyl-glucosamine: 0.001514
  UDP: -0.4364
  UMP: -0.7518
  UTP: 0.01959
  a-ketoglutarate: 0.135
  citrate/isocitrate: 0.264
  cytidine: 0.5859
  dATP: -0.01819
  dGMP/AMP: -0.2513
  fumarate: -0.275
  glucose-1/6-phosphate: -0.0724
  glycerate: 0.1576
  guanine: 0.3676
  guanosine: 0.05893
  hypoxanthine: 0.3977
  indole: 0.3227
  inosine: 0.344
  2_3-Diphosphoglyceric acid: -0.02223
  4-phosphopantothenate: 0.1153
  6-phospho-D-gluconate: 0.05128
  FMN: 0.1654
  IMP: -0.204
  Pyrophosphate: 0.1304
  Sedoheptoluse bisphosphate: -0.1099
  cyclic-AMP: 0.1921
  glutathione disulfide: -0.02789
  lactate: 0.5292
  myo-inositol: 0.004909
  nicotinate: 0.3366
  ornithine: 0.4059
  phosphoenolpyruvate: 0.0562
  pyruvate: 0.2612
  ribose-phosphate: -0.06101
  sarcosine/alanine: 0.3466
  sn-glycerol-3-phosphate: 0.2394
  succinate/methylmalonic acid: 0.03717
  uridine: 0.4023
  xanthosine: -0.2403
P. falciparum
  pEC50: 6.46
Atg8-Atg3
  PPI inhibitors of Atg8-Atg3 interaction: PPI inhibitors
T. cruzi Tulahuen
  pEC50: 6.55

## CN(C)c1ccc(C=Cc2nc(=O)c3ccccc3o2)cc1 [MMV006309]
[2]
  non-toxic N. caninum actives: non-toxic N. caninum actives
[1]
  Acetyllysine: -0.06229
  N-acetyl-L-ornithine: 0.06709
  N-carbamoyl-L-aspartate: 2.985
  NADPH: -0.04695
  dAMP: -0.4457
  dCMP: 0.07949
  dTDP: -0.6452
  dTMP: -0.3602
  dTTP: -0.2468
  dihydroorotate: 3.691
  orotate: -0.6105
  DLH: -0.3184
  DLS/SDL/SID: -0.2456
  PD: 0.4341
  PEE: -0.1161
  PVNF: -0.4902
  3-phosphoglycerate: -0.1315
  ADP-D-glucose: 0.1572
  ATP: 0.2918
  CDP: -0.5525
  D-sedoheptulose-1/7-phosphate: 0.4312
  FAD: 0.6491
  GMP: 2.281
  NAD+: 0.2407
  NADP+: 0.05923
  Octoluse Bisphosphate: 0.03854
  Pyroglutamic acid: -0.251
  UDP-D-glucose: 0.2158
  UDP-D-glucuronate: 0.1905
  UDP-N-acetyl-glucosamine: 0.2147
  UDP: -0.5733
  UMP: -0.8586
  UTP: -0.4965
  a-ketoglutarate: -0.2334
  citrate/isocitrate: -0.148
  cytidine: 0.1715
  dATP: 0.5165
  dGMP/AMP: -0.4086
  fumarate: 0.4652
  glucose-1/6-phosphate: 0.457
  glycerate: 0.3869
  guanine: 0.4747
  guanosine: 0.5548
  hypoxanthine: -0.07215
  indole: -0.02242
  inosine: 0.08258
  2_3-Diphosphoglyceric acid: 0.3655
  4-phosphopantothenate: -0.02209
  6-phospho-D-gluconate: 0.4028
  FMN: 0.2378
  IMP: -0.05126
  Pyrophosphate: 0.2614
  Sedoheptoluse bisphosphate: 0.2668
  cyclic-AMP: 0.09044
  glutathione disulfide: 0.5032
  lactate: 0.1016
  myo-inositol: 0.2436
  nicotinate: 0.1263
  ornithine: -0.005843
  phosphoenolpyruvate: -0.2041
  pyruvate: -0.06331
  ribose-phosphate: -0.02548
  sarcosine/alanine: 0.5971
  sn-glycerol-3-phosphate: -0.04439
  succinate/methylmalonic acid: 0.1372
  uridine: -0.2519
  xanthosine: 0.3479
P. falciparum
  pEC50: 7.29

## COc1cc(-c2nc(-c3ccccc3)c(-c3ccccc3)[nH]2)cc(OC)c1O [MMV020750]
[3]
  inhibition of M1 in words: moderate competitive inhibitors
[4]
  inhibition of M17 in words: moderate competitive inhibitors

## O=C(Nc1ccc([N+](=O)[O-])cc1Cl)c1cc(Cl)ccc1O [niclosamide]
[5]
  somule severity score: 4
[6]; 48 h, 5µM
  S. mansoni adult males 48hr motility assay: zero
[6]; 48hr at 5 µM
  S. mansoni adult males visual tox scale, 0 = none, 4=most damaged: 4

## COc1ccc(Nc2cc(C)nc(NCc3ccccc3)n2)cc1 [MMV006825]
PfA-M1
  effect on rPfA-M1 in words: particularly effective
PfA-M17
  effect on rPfA-M17 in words: only moderately inhibiting

## CC(C)C[C@H](NC(=O)[C@@H](O)[C@H](N)Cc1ccccc1)C(=O)O [bestatin, reference compound]
PfA-M1
  inhibition at 100 µM: 57%
PfA-M17
  inhibition at 100 µM: 100%
